Laboratory results as given in patent US10010520B2, “Combined application of isothiocyanate compound and anti-cancer medicine” (JC (WUXI) COMPANY, INC., priority 2013, dated 2018).
“And” between values parts separate entries of the source, which are not always exact repeats. Equal values may be shown once. Where a name gives a salt, the structure may show the parent alone. Read-outs that look alike come from different tables or passages of the source. One block for each compound: values may come before it.

What was measured:
[1] = test system: human leukemia HL-60 cells; assay: CellTiter-Glo cell viability, drugs alone or in combination, HL-60 cells; assay type: cell-based
Procedure: (§1) isothiocyanates or derivatives thereof and DNA-effecting or influencing anticancer drugs, kinase-inhibiting anticancer drugs or hormonal anticancer drugs for endocrine therapy were administered separately or in combination to cancer cells. Cells were seeded into 384-well plates, and cultured for 24 hours in a CO2 incubator. Drugs were dissolved in DMSO and diluted to 9 concentration-gradients in 96 well plates, and then added to corresponding cells in 384-well plates, in which the concentrations of DMSO in 384 well plates were less than 1%. Triplicate wells were set for each concentration. After administration, the cells were cultured in the CO2 incubator for another 72 hrs, and afterwards, cell viability was tested by using CellTiter-Glo® reagent and luminescence detector. And IC50 values of each administration group were calculated.
(§2) CI value was calculated by the following formula: CI=(Am)50/(As)50+(Bm)50/(Bs)50,
(§3) Triplicate wells were set for each co-administration cell well.
(§4) After administration, cells were cultured in the CO2 incubator for another 72 hrs, and afterwards, cell viability was tested by using CellTiter-Glo® reagent and luminescence detector. Curves were plotted according to concentrations or logarithm concentrations of drug A vs cell inhibition rate in the corresponding cell well, and IC50, i.e. (Am)50 was calculated.
(§5) 9 concentration gradients of drug A were set (A1, A2, A3, A4, A5, A6, A7, A8, A9), and administrated alone to the corresponding cells in the 384 well plate, and triplicate wells were set for each administration concentration. After administration, the cells were cultured in the CO2 incubator for another 72 hrs, and afterwards, cell viability was tested by using CellTiter-Glo® reagent and luminescence detector. Curves were plotted according to concentration or logarithm concentration of drug A vs the cell inhibition rate in the corresponding cell well, and IC50, i.e. (As)50 was calculated.
(§6) After administration, the cells were cultured in the CO2 incubator for another 72 hrs, and afterwards, cell viability was tested by using CellTiter-Glo® reagent and luminescence detector.

LNCaP cells = assay: CellTiter-Glo cell viability, drugs alone or in combination, LNCaP cells; assay type: cell-based, human
Procedure: Cell culture: Androgen-dependent human prostate cancer cells LNCaP, from Shanghai Medicilon Ltd., were placed in a 37° C., 5% CO2 cell incubator, and were cultured in RPMI1640 culture medium with 10% FBS. Androgen-independent human prostate cancer cells DU145, PC-3, from Shanghai Medicilon Ltd., were placed in a 37° C., 5% CO2 cell incubator, and were cultured in F12 culture medium with 10% FBS.
as §1, §2, §3, §4, §5, §6

[2] = test system: pancreatic cancer cells PANC-1; assay: CellTiter-Glo cell viability, drugs alone or in combination, PANC-1 cells; assay type: cell-based, human
Procedure: as §1, §2, §3, §4, §5, §6

Saos-2 cells = assay: CellTiter-Glo cell viability, drugs alone or in combination, Saos-2 cells; assay type: cell-based, human; details: Homo sapiens, SAOS-2, 72 h
Procedure: as §1, §2, §3, §4, §5, §6

[3] = test system: human kidney cancer cells 786-O; assay: CellTiter-Glo cell viability, drugs alone or in combination, 786-O cells; details: 786-0, 72 h
OVCAR-3 cells = assay: CellTiter-Glo cell viability, drugs alone or in combination, OVCAR-3 cells
[4] = test system: Human breast cancer MDA-MB-231 cells; assay: CellTiter-Glo cell viability, drugs alone or in combination, MDA-MB-231 cells; details: Homo sapiens, MDA-MB-231, 72 h
Jurkat E6-1 cells = assay: CellTiter-Glo cell viability, drugs alone or in combination, Jurkat E6-1 cells; assay type: cell-based, human; details: Homo sapiens
Procedure: as §1, §2, §3, §4, §5, §6

U251 cells = assay: CellTiter-Glo cell viability, drugs alone or in combination, U251 cells
HeLa cells = assay: CellTiter-Glo cell viability, drugs alone or in combination, HeLa cells; assay type: cell-based, human; details: 72 hrs, read-out: (Bs)50, IC50 of drug B when used alone
Procedure: as §1, §2, §3, §4, §5, §6

[5] = 72 hrs, read-out: (Bs)50, IC50 of drug B when used alone
[6] = Homo sapiens, LNCaP, 72 h, LNCaP cells, 72 hrs, read-out: (As)50, IC50 of drug A when used alone
[7] = Homo sapiens, PANC-1 cells, 72 hrs, read-out: (As)50, IC50 of drug A when used alone
[8] = Homo sapiens, HL-60, 72 h, read-out: (Bs)50, IC50 of drug B when used alone
[9] = read-out: (Bs)50, IC50 of drug B when used alone, 786-O cells, 72 hrs
[10] = Homo sapiens, OVCAR-3, 72 h, read-out: (As)50, IC50 of drug A when used alone
[11] = read-out: (As)50, IC50 of drug A when used alone
[12] = LNCaP cells, 72 hrs, read-out: (As)50, IC50 of drug A when used alone
[13] = Homo sapiens, U-251, 72 h, read-out: (Bs)50, IC50 of drug B when used alone, U251 cells, 72 hrs
[14] = PANC-1 cells, 72 hrs, read-out: (As)50, IC50 of drug A when used alone

Compound: COc1cccc2c1C(=O)c1c(O)c3c(c(O)c1C2=O)C[C@@](O)(C(C)=O)C[C@@H]3O[C@H]1C[C@H](N)[C@H](O)[C@H](C)O1 [daunorubicin, Daunorubicin]
IC50 [1, 5]: 0.236 µM

Compound: S=C=NCCCCCCc1ccccc1 [6-Phenhexyl isothiocyanate, 6-phenyl-hexyl isothiocyanate]
IC50 (LNCaP cells; [6]): 18.8 µM
IC50 [2, 7]: 30.9 µM

Compound: S=C=NCCCCc1ccccc1 [4-Phenbutyl isothiocyanate, 4-phenylbutyl isothiocyanate]
IC50 (LNCaP cells; [6]): 17.5 µM
IC50 [2, 7]: 26.9 µM

IC50 [1, 8]: 3.9 µM
Compound: Cc1cn(-c2cc(NC(=O)c3ccc(C)c(Nc4nccc(-c5cccnc5)n4)c3)cc(C(F)(F)F)c2)cn1 [nilotinib]

Compound: Nc1nc(F)nc2c1ncn2[C@@H]1O[C@H](CO)[C@@H](O)[C@@H]1O [fludarabine, Fludarabine]
IC50 [1, 8]: 1.57 µM

Compound: S=C=Nc1ccccc1 [Phenyl isothiocyanate, phenyl isothiocyanate]
IC50 (LNCaP cells; [6]): 43.6 µM
IC50 [2, 7]: 77.2 µM

Compound: CC(C)C[C@H](NC(=O)[C@H](Cc1ccccc1)NC(=O)c1cnccn1)B(O)O [bortezomib, reference compound]
IC50 (Saos-2 cells; Saos-2 cells, 72 hrs, read-out: (Bs)50, IC50 of drug B when used alone): 0.807 µM

IC50 [1, 5]: 0.0126 µM
Compound: CC[C@]1(O)C[C@H]2CN(CCc3c([nH]c4ccccc34)[C@@](C(=O)OC)(c3cc4c(cc3OC)N(C=O)[C@H]3[C@@](O)(C(=O)OC)[C@H](OC(C)=O)[C@]5(CC)C=CCN6CC[C@]43[C@@H]65)C2)C1 [vincristine sulfate]

Compound: C=CCN=C=S [allyl isothiocyanate]
IC50 [2, 7]: 116 µM

IC50 (LNCaP cells; LNCaP cells, 72 hrs, read-out: (Bs)50, IC50 of drug B when used alone): 323 µM
Compound: CCNC(=O)[C@@H]1CCCN1C(=O)[C@H](CCCNC(=N)N)NC(=O)[C@H](CC(C)C)NC(=O)[C@@H](CC(C)C)NC(=O)[C@H](Cc1ccc(O)cc1)NC(=O)[C@H](CO)NC(=O)[C@H](Cc1c[nH]c2ccccc12)NC(=O)[C@H](Cc1c[nH]cn1)NC(=O)[C@@H]1CCC(=O)N1 [leuprorelin, reference compound]

IC50 [3, 9]: 6.99 µM
Compound: CNC(=O)c1cc(Oc2ccc(NC(=O)Nc3ccc(Cl)c(C(F)(F)F)c3)cc2)ccn1 [Sorafenib, sorafenib, reference compound]

Compound: S=C=NCc1ccc(Cl)cc1 [4-chloro-benzyl isothiocyanate]
IC50 (LNCaP cells; Homo sapiens, LNCaP, 72 h, read-out: (As)50, IC50 of drug A when used alone): 17.3 µM
IC50 ([2]; Homo sapiens, PANC-1, 72 h, read-out: (As)50, IC50 of drug A when used alone): 34 µM
IC50 (OVCAR-3 cells; [10]): 18.2 µM

Compound: S=C=NC1CCCCC1 [cyclohexyl isothiocyanate]
IC50 [4, 11]: 37.5 µM
IC50 (Jurkat E6-1 cells; Jurkat E6-1 cells, 72 hrs, read-out: (As)50, IC50 of drug A when used alone): 42.1 µM
IC50 (LNCaP cells; [6]): 54 µM
IC50 [2, 7]: 193 µM
IC50 [3, 11]: 107 µM
IC50 (Saos-2 cells; [11]): 66 µM
IC50 (OVCAR-3 cells; [10]): 36.5 µM
IC50 ([1]; Homo sapiens, HL-60, 72 h, read-out: (As)50, IC50 of drug A when used alone): 52.7 µM
IC50 (U251 cells; Homo sapiens, U-251, 72 h, read-out: (As)50, IC50 of drug A when used alone): 71.1 µM

Compound: S=C=NCCCc1ccccc1 [Phenylpropyl isothiocyanate, phenylpropyl isothiocyanate]
IC50 (LNCaP cells; [12]): 22.9 µM
IC50 [2, 7]: 35.1 µM

Compound: Bleomycin [reference compound]
IC50 (HeLa cells): 24.5 µM

Compound: N.N.O=C([O-])C1(C(=O)[O-])CCC1.[Pt+2] [carboplatin, Carboplatin]
IC50 (OVCAR-3 cells; read-out: (Bs)50, IC50 of drug B when used alone, OVCAR-3 cells, 72 hrs): 58.9 µM and 38.7 µM

IC50 ([4]; read-out: (Bs)50, IC50 of drug B when used alone, MDA-MB-231 cells, 72 hrs): 0.0199 µM
Compound: CC(=O)O[C@H]1C(=O)[C@@]2(C)[C@H]([C@H](OC(=O)c3ccccc3)[C@]3(O)C[C@H](OC(=O)[C@H](O)[C@@H](NC(=O)c4ccccc4)c4ccccc4)C(C)=C1C3(C)C)[C@]1(OC(C)=O)CO[C@@H]1C[C@@H]2O [Paclitaxel, paclitaxel, reference compound]

IC50 (U251 cells; [13]): 23.7 µM
Compound: CO[C@H]1C[C@@H]2CC[C@@H](C)[C@@](O)(O2)C(=O)C(=O)N2CCCC[C@H]2C(=O)O[C@H]([C@H](C)C[C@@H]2CC[C@@H](OCCO)[C@H](OC)C2)CC(=O)[C@H](C)/C=C(\C)[C@@H](O)[C@@H](OC)C(=O)[C@H](C)C[C@H](C)/C=C/C=C/C=C/1C [everolimus]

Compound: O=NN(CCCl)C(=O)NC1CCCCC1 [Lomustine]
IC50 (U251 cells; [13]): 65.4 µM
IC50 (U251 cells; read-out: (Bs)50, IC50 of drug B when used alone, U251 cells, 72 hrs): 115 µM

IC50 (Jurkat E6-1 cells; Jurkat E6.1, 72 h, Jurkat E6-1 cells, 72 hrs, read-out: (Bs)50, IC50 of drug B when used alone): 0.0017 µM
Compound: C#CCC(Cc1cnc2nc(N)nc(N)c2n1)c1ccc(C(=O)N[C@@H](CCC(=O)O)C(=O)O)cc1 (stereo partly shown) [Pralatrexate, reference compound]

Compound: CC(=O)N[C@@H](CSC(=S)NCCc1ccccc1)C(=O)O [phenethyl isothiocyanate-N-acetylcysteine adduct]
IC50 (LNCaP cells; [12]): 16.4 µM
IC50 [2, 14]: 28.6 µM

IC50 (OVCAR-3 cells; Homo sapiens, OVCAR-3, 72 h, read-out: (Bs)50, IC50 of drug B when used alone, OVCAR-3 cells, 72 hrs): 0.0774 µM
Compound: CC[C@@]1(O)C(=O)OCc2c1cc1n(c2=O)Cc2cc3c(CN(C)C)c(O)ccc3nc2-1 [topotecan, Topotecan]

Compound: Cn1c(CCCC(=O)O)nc2cc(N(CCCl)CCCl)ccc21 [bendamustine, Bendamustine, reference compound]
IC50 (Jurkat E6-1 cells; Jurkat E6.1, 72 h, read-out: (Bs)50, IC50 of drug B when used alone): > 100 µM

Compound: COc1ccc(CN=C=S)cc1 [4-methoxy-benzyl isothiocyanate]
IC50 [2, 7]: 11.3 µM

IC50 (LNCaP cells; [6]): 15.3 µM
IC50 ([2]; Homo sapiens, PANC-1, 72 h, PANC-1 cells, 72 hrs, read-out: (As)50, IC50 of drug A when used alone): 14.3 µM
Compound: C[S+]([O-])CCCCN=C=S (stereo not shown) [sulforaphane, 1-isothiocyanate-4-methanesulfonyl butane]

Compound: CC(N=C=S)c1ccccc1 [L-ethyl phenyl isothiocyanate]
IC50 [2, 14]: 24 µM
IC50 (OVCAR-3 cells; read-out: (As)50, IC50 of drug A when used alone, OVCAR-3 cells, 72 hrs): 43.6 µM

IC50 [3, 9]: 199 µM
Compound: Cc1ccc(Nc2nccc(N(C)c3ccc4c(C)n(C)nc4c3)n2)cc1S(N)(=O)=O [Pazopanib, pazopanib, reference compound]

Compound: arsenic trioxide
IC50 [1, 5]: 2.75 µM

Compound: S=C=NCCCc1ccccc1 [3-Phenylpropyl isothiocyanate, 3-phenyl propyl isothiocyanate]
IC50 (LNCaP cells; [6]): 24.5 µM

Compound: C/C=C1\NC(=O)[C@H]2CSSCC/C=C/[C@H](CC(=O)N[C@H](C(C)C)C(=O)N2)OC(=O)[C@H](C(C)C)NC1=O [Romidepsin, romidepsin, reference compound]
IC50 (Jurkat E6-1 cells; Jurkat E6-1 cells, 72 hrs, read-out: (Bs)50, IC50 of drug B when used alone): 0.00201 µM

Compound: O=P1(N(CCCl)CCCl)NCCCO1 (stereo not shown) [cyclophosphamide, Cyclophosphamide]
IC50 (OVCAR-3 cells; Homo sapiens, OVCAR-3, 72 h, read-out: (Bs)50, IC50 of drug B when used alone): > 100 µM

IC50 ([2]; Homo sapiens, PANC-1, 72 h, PANC-1 cells, 72 hrs, read-out: (Bs)50, IC50 of drug B when used alone): > 100 µM
Compound: C#Cc1cccc(Nc2ncnc3cc(OCCOC)c(OCCOC)cc23)c1 [erlotinib, reference compound]

Compound: S=C=NC(c1ccccc1)(c1ccccc1)c1ccccc1 [trityl isothiocyanate]
IC50 (LNCaP cells; [6]): 238 µM
IC50 [2, 7]: > 50 µM
